Where two headings read alike, the source gives them in different places.
Legend:
Reovirus-1 = test: CPE reduction assay, reovirus-1 in Vero cells; format: cell-based; conditions: for EC50: Vero, read-out: Antiviral EC50 value, Reovirus-1
Para-influenza-3 virus = test: CPE reduction assay, para-influenza-3 virus in Vero cells; format: cell-based; conditions: for EC50: Vero, read-out: Antiviral EC50 value, Para-influenza-3 virus
Sindbis virus = test: CPE reduction assay, Sindbis virus in Vero cells; format: cell-based; conditions: for EC50: Sindbis virus, Vero, read-out: Antiviral EC50 value, Sindbis virus
[1] = test system: Respiratory syncytial virus; test: CPE reduction assay, respiratory syncytial virus in HeLa cells; format: cell-based; conditions: for Selectivity index (ratio of MCC to antiviral EC50), Respiratory syncytial virus: value in square brackets
Vero cells = conditions: microscopy
[2] = test system: HEL: human embryonic lung fibroblast cells; conditions: microscopy
[3] = test system: MDCK: Madin-Darby canine kidney cells; conditions: microscopy
HeLa cells = conditions: microscopy
Punta Toro virus = test: CPE reduction assay, Punta Toro virus in Vero cells; format: cell-based
Coxsackie B4 virus [4] = test: CPE reduction assay, Coxsackie B4 virus in HeLa cells; format: cell-based
[5] = test system: Vesicular stomatitis virus; format: cell-based
Coxsackie B4 virus [6] = test: CPE reduction assay, Coxsackie B4 virus in Vero cells; format: cell-based
[7] = CPE inhibition, microscopy, mean ± SEM of three tests
[8] = Vero cells, CPE inhibition, microscopy
[9] = Vero cells, CPE inhibition, microscopy, mean ± SEM of three tests
[10] = Vero cells, value in square brackets

Row | Compound | EC50 (Reovirus-1) | EC50 (Para-influenza-3 virus) | MCC (compound concentration causing minimal changes in cell morphology) (Vero cells) | MCC (compound concentration causing minimal changes in cell morphology) [2] [μg/mL] | MCC (compound concentration causing minimal changes in cell morphology) [3] [μg/mL] | MCC (compound concentration causing minimal changes in cell morphology) (HeLa cells) [μg/mL] | further results
1 | CNC(=S)NNC(=O)c1[nH]c2ccc(F)cc2c1-c1ccccc1 [Compound 6a, 1-((5-Fluoro-3-phenyl-1H-indol-2-yl)carbonyl)-4-methyl-3-thiosemicarbazide] | > 100 µg/mL | > 100 µg/mL | – | – | – | – | –
2 | CCNC(=S)NNC(=O)c1[nH]c2ccc(F)cc2c1-c1ccccc1 [Compound 6b, 4-Ethyl-1-((5-fluoro-3-phenyl-1H-indol-2-yl)carbonyl)-3-thiosemicarbazide] | > 100 µg/mL | > 100 µg/mL | – | – | – | – | EC50 (Sindbis virus): 3.2 ± 0.8 µg/mL; Selectivity index (ratio of MCC to antiviral EC50), Respiratory syncytial virus [1]: ≥ 5
3 | CCCNC(=S)NNC(=O)c1[nH]c2ccc(F)cc2c1-c1ccccc1 [Compound 6c, 1-((5-Fluoro-3-phenyl-1H-indol-2-yl)carbonyl)-4-propyl-3-thiosemicarbazide] | > 100 µg/mL | > 100 µg/mL | 100 μg/mL | – | – | – | Selectivity index (ratio of MCC to antiviral EC50), Respiratory syncytial virus [1]: ≥ 9
4 | C=CCNC(=S)NNC(=O)c1[nH]c2ccc(F)cc2c1-c1ccccc1 [Compound 6d, 4-Allyl-1-((5-fluoro-3-phenyl-1H-indol-2-yl)carbonyl)-3-thiosemicarbazide] | > 100 µg/mL | > 100 µg/mL | – | – | – | – | Selectivity index (ratio of MCC to antiviral EC50), Respiratory syncytial virus [1]: ≥ 5
5 | CCCCNC(=S)NNC(=O)c1[nH]c2ccc(F)cc2c1-c1ccccc1 [Compound 6e, 4-Butyl-1-((5-fluoro-3-phenyl-1H-indol-2-yl)carbonyl)-3-thiosemicarbazide] | > 100 µg/mL | > 100 µg/mL | – | >10 | – | – | –
6 | O=C(NNC(=S)NCc1ccccc1)c1[nH]c2ccc(F)cc2c1-c1ccccc1 [Compound 6f, 4-Benzyl-1-((5-fluoro-3-phenyl-1H-indol-2-yl)carbonyl)-3-thiosemicarbazide] | > 100 µg/mL | > 100 µg/mL | – | >10 | >10 | – | –
7 | O=C(NNC(=S)NCCc1ccccc1)c1[nH]c2ccc(F)cc2c1-c1ccccc1 [Compound 6g, 1-((5-Fluoro-3-phenyl-1H-indol-2-yl)carbonyl)-4-phenethyl-3-thiosemicarbazide] | > 100 µg/mL | > 100 µg/mL | – | – | – | – | –
8 | CN1C(=O)CS/C1=N\NC(=O)c1[nH]c2ccc(F)cc2c1-c1ccccc1 [Compound 7a, 5-Fluoro-N′-(3-methyl-4-oxo-1,3-thiazolidinon-2-ylidene)-3-phenyl-1H-indol-2-carbohydrazide] | > 100 µg/mL | > 100 µg/mL | – | >100 | 100 | 100 | –
9 | CCN1C(=O)CS/C1=N\NC(=O)c1[nH]c2ccc(F)cc2c1-c1ccccc1 [Compound 7b, N′-(3-Ethyl-4-oxo-1,3-thiazolidinon-2-ylidene)-5-fluoro-3-phenyl-1H-indol-2-carbohydrazide] | > 100 µg/mL | > 100 µg/mL | – | >100 | 100 | >100 | –
10 | CCCN1C(=O)CS/C1=N\NC(=O)c1[nH]c2ccc(F)cc2c1-c1ccccc1 [Compound 7c, 5-Fluoro-N′-(4-oxo-3-propyl-1,3-thiazolidinon-2-ylidene)-3-phenyl-1H-indol-2-carbohydrazide] | > 100 µg/mL | > 100 µg/mL | >100 μg/mL | >100 | >100 | >100 | –
11 | C=CCN1C(=O)CS/C1=N\NC(=O)c1[nH]c2ccc(F)cc2c1-c1ccccc1 [Compound 7d, N′-[(2Z)-3-Allyl-4-oxo-1,3-thiazolidinon-2-ylidene]-5-fluoro-3-phenyl-1H-indol-2-carbohydrazide] | > 100 µg/mL | > 100 µg/mL | >100 μg/mL | >100 | 100 | >100 | –
12 | CCCCN1C(=O)CS/C1=N\NC(=O)c1[nH]c2ccc(F)cc2c1-c1ccccc1 [Compound 7e, N′-(3-Butyl-4-oxo-1,3-thiazolidinon-2-ylidene)-5-fluoro-3-phenyl-1H-indol-2-carbohydrazide] | > 100 µg/mL | > 100 µg/mL | >10 μg/mL | >10 | >10 | >100 | –
13 | O=C(N/N=C1\SCC(=O)N1Cc1ccccc1)c1[nH]c2ccc(F)cc2c1-c1ccccc1 [Compound 7f, N′-(3-Benzyl-4-oxo-1,3-thiazolidinon-2-ylidene)-5-fluoro-3-phenyl-1H-indol-2-carbohydrazide] | > 100 µg/mL | > 100 µg/mL | ⩾10 μg/mL | >10 | >10 | >100 | –
14 | O=C(N/N=C1\SCC(=O)N1CCc1ccccc1)c1[nH]c2ccc(F)cc2c1-c1ccccc1 [Compound 7g, 5-Fluoro-N′-(4-oxo-3-phenethyl-1,3-thiazolidinon-2-ylidene)-3-phenyl-1H-indol-2-carbohydrazide] | > 100 µg/mL | > 100 µg/mL | – | >10 | >10 | 100 | –
15 | NC(=O)c1ncn([C@@H]2O[C@H](CO)[C@@H](O)[C@H]2O)n1 [Ribavirin, ribavirin, reference compound] | > 250 µM | > 250 µM | – | – | – | – | MCC (compound concentration causing minimal changes in cell morphology) (Vero cells; ribavirin data in μM): >250 μM; MCC (compound concentration causing minimal changes in cell morphology) (HeLa cells; ribavirin data in μM): >250 μM; EC50 (Sindbis virus): 250 µM; EC50 (Punta Toro virus; Punta Toro virus, Vero, read-out: Antiviral EC50 value, Punta Toro virus): 50 µM
16 | dextran sulfate [DS-5000] | – | – | >100 μg/mL | – | – | >100 | Antiviral EC50 value, Coxsackie B4 virus (Coxsackie B4 virus [4]; [7]): ≥ 4 µg/mL; Selectivity index (ratio of MCC to antiviral EC50), Coxsackie B4 virus (Coxsackie B4 virus [4]; value in square brackets): ≥ 25; Antiviral EC50 value, Vesicular stomatitis virus [5]: 8.0 ± 3.1 [>12] μg/mL; Selectivity index (ratio of MCC to antiviral EC50), Vesicular stomatitis virus [5]: 8.0 ± 3.1 [>12]; Antiviral EC50 value, Coxsackie B4 virus (Coxsackie B4 virus [6]; [7]): 40 ± 10 µg/mL; Selectivity index (ratio of MCC to antiviral EC50), Coxsackie B4 virus (Coxsackie B4 virus [6]; value in square brackets): > 2.5; Antiviral EC50 value, Reovirus-1 (Reovirus-1; [8]): >100 µg/mL; Antiviral EC50 value, Para-influenza-3 virus (Para-influenza-3 virus; [8]): >100 µg/mL; Antiviral EC50 value, Sindbis virus (Sindbis virus; [9]): 68 ± 32 µg/mL; Selectivity index (ratio of MCC to antiviral EC50), Sindbis virus (Sindbis virus; [10]): > 1.5; Antiviral EC50 value, Respiratory syncytial virus [1, 7]: 5.3 ± 3.3 µg/mL; Selectivity index (ratio of MCC to antiviral EC50), Respiratory syncytial virus [1]: > 19; Antiviral EC50 value, Punta Toro virus (Punta Toro virus; [9]): 20 ± 0 µg/mL; Selectivity index (ratio of MCC to antiviral EC50), Punta Toro virus (Punta Toro virus; [10]): > 5

Source: article PMC7127696 (Bioorganic & Medicinal Chemistry, 2015)
